Experimental data as given in patent US20260108521A1, “GSPT1 DEGRADERS, COMPOSITIONS COMPRISING THE DEGRADER, AND METHODS OF USING THE SAME” (BIOFRONT LTD, priority 2022, published 2026).
pIC50: −log10 of the molar value.

How the values were obtained:
GSPT1 protein = biological target: T1, GSPT1 protein (Homo sapiens, UniProt P15170+Q96SW2); assay: GSPT1 degradation assay (western blot) in HL-60 cells; type: cell-based; settings: GSPT1 protein level, 2h incubation, western blot normalized to beta-Actin; for inhibition at 0.1 µM: 0.1 μM compound; for inhibition at 1 µM: 1 μM compound
T1 construct: endogenous in cells; host or cells: HL-60 cells
Procedure: HL-60 cells (4×10^^6 cells/well) were seeded in 6-well culture plate (Costar, 3516) and treated with a variety of concentrations of test compound. After 2h incubation, cells were collected and lysed. The protein concentration was determined by BCA protein assay kit from Thermo (23227). The GSPT1 protein level was determined by western blots, using GSPT1 polyclonal antibody. Proteins were loaded into each well of the pre-casting gels and subjected to electrophoretic separation by SDS-PAGE. The protein resolved by SDS-PAGE were transferred to PVDF, blocked by 5% skim milk and probed with anti-GSPT1 antibody (Proteintech, 10763-1-AP) or anti-β-actin antibody (CST, 3700S), using following standard western blotting procedure. Blots intensities were quantified using ImageJ software and the intensity of GSPT1 bands were normalized to beta-Actin bands, respectively. The GSPT1 degradation results were then calculated. Reported compound C84971 (see WO2021126974A1 and WO2021126973A1) was used as a reference.

HL-60 cells = assay: Cell viability assay (CellTiter-Glo); type: cell-based; settings: Homo sapiens, 72 h incubation, 6-point serial dilution
Procedure: HL-60 cells were seeded at a density of 7000 cells per well in 96-well culture plates (Corning 3903) with IMDM and treated with test compounds following a 6-point serial dilution. RPMI 1640 (0.1% DMSO) was used as control for each well. After 72 h incubation, cell viability was determined using the CellTiter-Glo assay kit (Promega, G9242) according to the manufacturer's instructions. The dose-response curves were determined and IC50 values were calculated using the GraphPad Prism software following a nonlinear regression method.

T1 sequence (P15170 whole entry): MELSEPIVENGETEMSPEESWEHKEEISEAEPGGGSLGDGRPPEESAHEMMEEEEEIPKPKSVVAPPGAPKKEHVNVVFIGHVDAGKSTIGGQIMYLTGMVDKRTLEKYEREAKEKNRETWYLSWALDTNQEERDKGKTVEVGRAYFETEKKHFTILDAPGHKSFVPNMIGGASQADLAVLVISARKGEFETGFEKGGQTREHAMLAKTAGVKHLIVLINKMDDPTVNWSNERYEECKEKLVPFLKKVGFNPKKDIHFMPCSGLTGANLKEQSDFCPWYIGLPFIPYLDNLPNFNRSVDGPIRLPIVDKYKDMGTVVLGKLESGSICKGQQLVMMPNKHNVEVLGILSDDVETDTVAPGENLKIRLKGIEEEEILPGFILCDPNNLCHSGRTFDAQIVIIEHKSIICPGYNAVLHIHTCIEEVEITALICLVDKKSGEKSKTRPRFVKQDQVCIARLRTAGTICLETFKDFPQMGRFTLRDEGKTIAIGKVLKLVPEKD
T1 sequence (Q96SW2 whole entry): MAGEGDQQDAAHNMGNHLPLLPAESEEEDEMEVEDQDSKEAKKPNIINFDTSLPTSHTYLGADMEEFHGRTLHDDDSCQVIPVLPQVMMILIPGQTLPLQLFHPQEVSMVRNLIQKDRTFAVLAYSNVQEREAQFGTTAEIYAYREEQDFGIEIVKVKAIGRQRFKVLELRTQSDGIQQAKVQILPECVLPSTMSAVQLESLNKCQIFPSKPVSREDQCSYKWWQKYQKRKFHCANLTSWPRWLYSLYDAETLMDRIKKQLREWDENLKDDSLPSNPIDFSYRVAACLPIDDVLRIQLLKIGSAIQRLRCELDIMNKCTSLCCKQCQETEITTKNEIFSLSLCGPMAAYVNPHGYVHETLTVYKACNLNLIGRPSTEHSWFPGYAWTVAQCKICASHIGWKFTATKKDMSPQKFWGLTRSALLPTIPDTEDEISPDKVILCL
T1 sequence (Q16531 whole entry partner): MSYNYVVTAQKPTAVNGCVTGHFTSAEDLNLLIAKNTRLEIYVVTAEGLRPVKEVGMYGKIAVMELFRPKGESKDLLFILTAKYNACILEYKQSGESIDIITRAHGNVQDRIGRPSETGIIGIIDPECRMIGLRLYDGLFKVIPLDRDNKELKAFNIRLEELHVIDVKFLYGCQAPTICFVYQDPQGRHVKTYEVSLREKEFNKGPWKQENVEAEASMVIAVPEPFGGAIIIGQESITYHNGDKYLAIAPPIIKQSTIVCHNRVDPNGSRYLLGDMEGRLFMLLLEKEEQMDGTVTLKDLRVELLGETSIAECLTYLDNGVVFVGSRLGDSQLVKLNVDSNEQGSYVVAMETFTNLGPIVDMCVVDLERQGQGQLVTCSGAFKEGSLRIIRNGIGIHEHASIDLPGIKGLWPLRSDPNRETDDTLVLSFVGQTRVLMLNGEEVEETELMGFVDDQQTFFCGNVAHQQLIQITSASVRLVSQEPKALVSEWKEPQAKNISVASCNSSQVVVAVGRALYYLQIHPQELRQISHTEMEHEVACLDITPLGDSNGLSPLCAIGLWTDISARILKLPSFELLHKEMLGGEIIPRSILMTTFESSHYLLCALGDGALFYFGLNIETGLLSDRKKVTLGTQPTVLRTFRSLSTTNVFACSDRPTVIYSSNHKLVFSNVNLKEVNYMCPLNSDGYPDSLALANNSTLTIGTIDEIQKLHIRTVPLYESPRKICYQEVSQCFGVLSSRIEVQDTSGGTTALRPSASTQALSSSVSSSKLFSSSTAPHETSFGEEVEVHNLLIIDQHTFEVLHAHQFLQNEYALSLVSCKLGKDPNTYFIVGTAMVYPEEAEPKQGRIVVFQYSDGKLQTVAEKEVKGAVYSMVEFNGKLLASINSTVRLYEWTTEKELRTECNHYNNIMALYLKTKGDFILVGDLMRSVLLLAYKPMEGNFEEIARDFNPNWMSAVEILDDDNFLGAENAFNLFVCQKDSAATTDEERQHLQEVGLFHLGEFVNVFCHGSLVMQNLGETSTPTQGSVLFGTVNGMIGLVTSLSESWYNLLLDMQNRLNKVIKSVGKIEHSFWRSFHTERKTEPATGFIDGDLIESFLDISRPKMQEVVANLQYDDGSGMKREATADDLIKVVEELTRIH

Row | Compound | inhibition at 0.1 µM (GSPT1 protein) | inhibition at 1 µM (GSPT1 protein) | pIC50 (HL-60 cells)
1 | O=C1CCC(N2C(=O)c3ccc(N4CC(CCN5CCCN(c6cccc(-c7cnc8c(cnn8C8CC8)c7)c6)C5=O)C4)cc3C2=O)C(=O)N1 (stereo not drawn) [Compound 22, 5-(3-(2-(3-(3-(1-cyclopropyl-1H-pyrazolo[3,4-b]pyridin-5-yl)phenyl)-2-oxotetrahydropyrimidin-1(2H)-yl)ethyl)azetidin-1-yl)-2-(2,6-dioxopiperidin-3-yl)isoindoline-1,3-dione] | 29% | 29% | < 6.00
2 | O=C1CCC(N2C(=O)c3ccc(N4CCC(CN5CCCN(c6cccc(-c7cnccc7Cl)c6)C5=O)CC4)cc3C2=O)C(=O)N1 (stereo not drawn) [Compound 3, 5-(4-((3-(3-(4-chloropyridin-3-yl)phenyl)-2-oxotetrahydropyrimidin-1(2H)-yl)methyl)piperidin-1-yl)-2-(2,6-dioxopiperidin-3-yl)isoindoline-1,3-dione] | 30% | 48% | 6.63
3 | O=C1CCC(N2C(=O)c3ccc(N4CCC(CN5CCCN(c6ccccc6)C5=O)CC4)cc3C2=O)C(=O)N1 (stereo not drawn) [Compound 1, 2-(2,6-dioxopiperidin-3-yl)-5-{4-[(2-oxo-3-phenyl-1,3-diazinan-1-yl)methyl]piperidin-1-yl}isoindole-1,3-dione] | 45% | 51% | 5.83
4 | O=C1CCC(N2C(=O)c3ccc(N4CC(CCN5CCN(c6ccccc6)C5=O)C4)cc3C2=O)C(=O)N1 (stereo not drawn) [Compound 12, 2-(2,6-dioxopiperidin-3-yl)-5-(3-(2-(2-oxo-3-phenylimidazolidin-1-yl)ethyl)azetidin-1-yl)isoindoline-1,3-dione] | 0% | 0% | < 6.00
5 | O=C1CCC(N2C(=O)c3ccc(N4CCC(CN5CCCN(c6ccc7ncccc7c6)C5=O)CC4)cc3C2=O)C(=O)N1 (stereo not drawn) [Compound 11, 2-(2,6-dioxopiperidin-3-yl)-5-(4-((2-oxo-3-(quinolin-6-yl)tetrahydropyrimidin-1(2H)-yl)methyl)piperidin-1-yl)isoindoline-1,3-dione] | 14% | < 5% | < 6.00
6 | CCc1c[nH]c2ccc(-c3cccc(N4CCCN(CCC5CN(c6ccc7c(c6)C(=O)N(C6CCC(=O)NC6=O)C7=O)C5)C4=O)c3)c(Cl)c12 (stereo not drawn) [Compound 26, 5-(3-(2-(3-(3-(4-chloro-3-ethyl-1H-indol-5-yl)phenyl)-2-oxotetrahydropyrimidin-1(2H)-yl)ethyl)azetidin-1-yl)-2-(2,6-dioxopiperidin-3-yl)isoindoline-1,3-dione] | 63% | 85% | 7.11
7 | CCc1c[nH]c2ncc(-c3cccc(N4CCCN(CCC5CN(c6ccc7c(c6)C(=O)N(C6CCC(=O)NC6=O)C7=O)C5)C4=O)c3)c(Cl)c12 (stereo not drawn) [Compound F, 5-(3-(2-(3-(3-(4-chloro-3-ethyl-1H-pyrrolo[2,3-b]pyridin-5-yl)phenyl)-2-oxotetrahydropyrimidin-1(2H)-yl)ethyl)azetidin-1-yl)-2-(2,6-dioxopiperidin-3-yl)isoindoline-1,3-dione] | 86% | 95% | 8.04
8 | O=C1CCC(N2C(=O)c3ccc(N4CCC(CN5CCCCN(c6ccccc6)C5=O)CC4)cc3C2=O)C(=O)N1 (stereo not drawn) [Compound 6, 2-(2,6-dioxopiperidin-3-yl)-5-(4-((2-oxo-3-phenyl-1,3-diazepan-1-yl)methyl)piperidin-1-yl)isoindoline-1,3-dione] | 46% | 52% | 6.40
9 | O=C1CCC(N2C(=O)c3ccc(N4CCC(CN5CCCN(c6cccc(C7CC7)c6)C5=O)CC4)cc3C2=O)C(=O)N1 (stereo not drawn) [Compound 15, 5-(4-((3-(3-cyclopropylphenyl)-2-oxotetrahydropyrimidin-1(2H)-yl)methyl)piperidin-1-yl)-2-(2,6-dioxopiperidin-3-yl)isoindoline-1,3-dione] | 30% | 57% | 6.54
10 | Nc1ccc(-c2cccc(N3CCCN(CC4CCN(c5ccc6c(c5)C(=O)N(C5CCC(=O)NC5=O)C6=O)CC4)C3=O)c2)c(Cl)n1 (stereo not drawn) [Compound 28, 5-[4-({3-[3-(6-amino-2-chloropyridin-3-yl)phenyl]-2-oxo-1,3-diazinan-1-yl}methyl)piperidin-1-yl]-2-(2,6-dioxopiperidin-3-yl)isoindole-1,3-dione] | 77% | 78% | 7.29
11 | O=C1CCC(N2C(=O)c3ccc(N4CC(CCN5CCCN(c6cccc(-c7cnc8[nH]ncc8c7)c6)C5=O)C4)cc3C2=O)C(=O)N1 (stereo not drawn) [Compound 25, 2-(2,6-dioxopiperidin-3-yl)-5-(3-{2-[2-oxo-3-(3-{1H-pyrazolo[3,4-b]pyridin-5-yl}phenyl)-1,3-diazinan-1-yl]ethyl}azetidin-1-yl)isoindole-1,3-dione] | 55% | 57% | 6.86
12 | O=C1CCC(N2C(=O)c3cc(F)c(N4CCC(CCN5CCCN(c6cccc(-c7cnc8[nH]cc(C9CC9)c8c7Cl)c6)C5=O)CC4)cc3C2=O)C(=O)N1 (stereo not drawn) [Compound B, 5-(4-(2-(3-(3-(4-chloro-3-cyclopropyl-1H-pyrrolo[2,3-b]pyridin-5-yl)phenyl)-2-oxotetrahydropyrimidin-1(2H)-yl)ethyl)piperidin-1-yl)-2-(2,6-dioxopiperidin-3-yl)-6-fluoroisoindoline-1,3-dione] | 45% | 75% | 6.91
13 | O=C1CCC(N2Cc3ccc(N4CCNC4=O)cc3C2=O)C(=O)N1 (stereo not drawn) [Compound C84971, reference compound] | 0% | 0% | < 5.30
14 | O=C1CCC(N2C(=O)c3ccc(N4CC(CCN5CCCN(c6cccc(-c7cnc8ccccc8c7)c6)C5=O)C4)cc3C2=O)C(=O)N1 (stereo not drawn) [Compound 23, 2-(2,6-dioxopiperidin-3-yl)-5-(3-(2-(2-oxo-3-(3-(quinolin-3-yl)phenyl)tetrahydropyrimidin-1(2H)-yl)ethyl)azetidin-1-yl)isoindoline-1,3-dione] | 33% | 45% | < 6.00
15 | O=C1CCC(N2C(=O)c3ccc(N4CCC(CN5CCCN(c6cccc(Br)c6)C5=O)CC4)cc3C2=O)C(=O)N1 (stereo not drawn) [Compound 9, 5-(4-((3-(3-bromophenyl)-2-oxotetrahydropyrimidin-1(2H)-yl)methyl)piperidin-1-yl)-2-(2,6-dioxopiperidin-3-yl)isoindoline-1,3-dione] | 0% | 15% | < 6.00
16 | CCc1c[nH]c2ncc(-c3cccc(N4CCCN(CC5CCN(c6ccc7c(c6)C(=O)N(C6CCC(=O)NC6=O)C7=O)CC5)C4=O)c3)c(Cl)c12 (stereo not drawn) [Compound A, 5-(4-((3-(3-(4-chloro-3-ethyl-1H-pyrrolo[2,3-b]pyridin-5-yl)phenyl)-2-oxotetrahydropyrimidin-1(2H)-yl)methyl)piperidin-1-yl)-2-(2,6-dioxopiperidin-3-yl)isoindoline-1,3-dione] | 85% | > 95% | 8.00
17 | O=C1CCC(N2C(=O)c3ccc(N4CC(CCN5CCCN(c6cccc(Br)c6)C5=O)C4)cc3C2=O)C(=O)N1 (stereo not drawn) [Compound 10, 5-(3-(2-(3-(3-bromophenyl)-2-oxotetrahydropyrimidin-1(2H)-yl)ethyl)azetidin-1-yl)-2-(2,6-dioxopiperidin-3-yl)isoindoline-1,3-dione] | 40% | 45% | 6.84
